Measured values from article PMC7482817 (Theranostics, 2020).

Assays:
E. coli B2 (mcr-1) [1] = experiment: Broth microdilution MIC and checkerboard assay; assay type: cell-based, Escherichia coli; conditions: for Potentiation (fold): degree of colistin potentiation in the presence of sub-MIC of melatonin and its analogues: colistin plus sub-MIC of the analogue; for MIC of antibiotic in the absence of melatonin: antibiotic alone, MHB
E. coli MG1655 = experiment: Broth microdilution MIC and checkerboard assay; assay type: cell-based, Escherichia coli
E. coli ATCC 25922 = experiment: Broth microdilution MIC and checkerboard assay; assay type: cell-based, Escherichia coli
E. coli C3 = experiment: Broth microdilution MIC and checkerboard assay; assay type: cell-based, Escherichia coli
E. coli G6 = experiment: Broth microdilution MIC and checkerboard assay; assay type: cell-based, Escherichia coli
S. enterica ATCC 13076 = experiment: Broth microdilution MIC and checkerboard assay; assay type: cell-based
E. coli G92 (mcr-1) = experiment: Broth microdilution MIC and checkerboard assay; assay type: cell-based, Escherichia coli
E. coli CP131 (mcr-3) = experiment: Broth microdilution MIC and checkerboard assay; assay type: cell-based, Escherichia coli
[2] = test system: K. pneumoniae D120 (mcr-8); experiment: Broth microdilution MIC and checkerboard assay; assay type: cell-based
E. coli B2 (mcr-1) [3] = experiment: Time-dependent killing; assay type: cell-based, Escherichia coli; conditions: melatonin 1 mg/mL or colistin 2 μg/mL alone, 24 h
Method: Overnight E. coli B2 were diluted 1/1,000 in MHB, and incubated for 4 h (exponential phase) or 8 h (stationary phase) at 37 °C. […] At intervals, 100 μL aliquots were removed, centrifuged and resuspended in 100 μL sterile PBS. Subsequently, ten-fold serially diluted suspensions were plated on MHA plates and incubated overnight at 37 °C. Bacterial colonies were counted and the primary CFUs/mL was calculated.

E. coli B2 (mcr-1) [4] = experiment: Mouse peritonitis-sepsis infection model; assay type: in vivo, BALB/c mice; conditions: single i.p. dose 1 h post-infection: colistin 10 mg/kg, melatonin 50 mg/kg, or combinations 5 + 50, 10 + 20, 10 + 50 mg/kg; 7 days; n = 8 or 9
Method: 6-8-week-old female BALB/c mice were obtained from Comparative Medicine Centre of Yangzhou University (Jiangsu, China). Mice were adapted for one week prior to infection. Mouse studies were performed in accordance with the relevant guidelines and regulations (ID: SCXK-2017-0007). The laboratory animal usage license number is SCXK-2017-0044, certified by Jiangsu Association for Science and Technology.
Female BALB/c mice (n = 8 or 9 per group) were intraperitoneally infected with a dose of 3.0 × 10^8 CFUs E. coli B2 suspension. […] Survival rates of mice were recorded for 7 days.

E. coli MG1655 (ΔkatE) = experiment: Broth microdilution MIC and checkerboard assay
CHO cells = experiment: Cytotoxicity, WST-1 assay; assay type: cell-based, Chinese Hamster; conditions: colistin 0 to 128 μg/mL with melatonin 0 to 1,000 μg/mL, 24 h
Method: (§3) Cytotoxicity on CHO and HEK293T cells was determined using the water-soluble tetrazolium salt-1 (WST-1, Roche, Switzerland) assay [35].

HEK293T cells = experiment: Cytotoxicity, WST-1 assay; assay type: cell-based, Human; conditions: colistin 0 to 128 μg/mL with melatonin 0 to 1,000 μg/mL, 24 h
Method: as §3

E. coli B2 (mcr-1) [5] = experiment: Membrane depolarization (DiSC3(5)); assay type: cell-based, Escherichia coli; conditions: melatonin 0 to 1,000 μg/mL alone, or 500 μg/mL added to colistin; 1 h
Method: (§1) Pretreatments of biochemical assays were performed using similar protocols as follows. Overnight E. coli B2 were washed, suspended in 5 mM HEPES (pH 7.0, plus 5 mM glucose) with an OD600 of 0.5, and incubated with fluorescent dyes for 30 min. […] After incubation at 37 °C for 1 hour, fluorescence intensity or absorbance or luminescence was measured by an Infinite M200 Microplate reader (Tecan).
3, 3-dipropylthiadicarbocyanine iodide (DiSC3(5), 0.5 μM) was applied to determine the membrane potential. Dissipated membrane potential of E. coli B2 was measured with the excitation wavelength of 622 nm and emission wavelength of 670 nm.

E. coli B2 [6] = experiment: Total ROS (DCFH-DA); assay type: cell-based, Escherichia coli; conditions: 1 h, colistin with or without melatonin 500 μg/mL, or melatonin alone
Method: as §1
(§2) 2′,7′-dichlorodihydrofluorescein diacetate (DCFH-DA, 10 μM) was applied to monitor levels of ROS in E. coli B2 [38], following the manufacturer's instruction (Beyotime). Fluorescence intensity was measured with the excitation wavelength of 488 nm and emission wavelength of 525 nm. […] After incubation for one hour, the absorbance of lysis buffer at 570 nm was measured.

E. coli B2 [7] = experiment: H2O2 production (Hydrogen Peroxide Assay Kit); assay type: cell-based, Escherichia coli; conditions: melatonin in single or combination treatment with colistin; 1 h
Method: as §2

[8] = test system: mcr-1 expression in E. coli B2; assay type: cell-based, Escherichia coli; conditions: melatonin with or without colistin
E. coli = experiment: Colistin intracellular accumulation by LC-MS/MS; assay type: cell-based, Escherichia coli; conditions: co-incubation with varying doses of melatonin
resistant bacteria = experiment: Potentiation of colistin, summary over resistant strains; assay type: cell-based; conditions: in resistant bacteria
[9] = test system: thirteen clinical colistin-resistant E. coli from elk
E. coli B2 [10] = experiment: Intracellular SOD activity; conditions: colistin with or without melatonin 500 μg/mL, or melatonin alone
[11] = melatonin or analogue with colistin, checkerboard 8 × 8, 18 h, means of two biological replicates, synergy FIC index ≤ 0.5
[12] = antibiotic plus sub-MIC melatonin
[13] = antibiotic with melatonin, checkerboard, two biological replicates

In the case of `CC(=O)NCCc1c[nH]c2ccc(O)cc12` [Analogue 5, N-acetyl-5-hydroxytryptamine], the “Potentiation (fold): degree of colistin potentiation in the presence of sub-MIC of melatonin and its analogues” value (E. coli B2 (mcr-1) [1]) is reported as 32 fold and the FIC index (E. coli B2 (mcr-1) [1]; [11]) is reported as 0.094.
For `NCCc1c[nH]c2ccc(O)cc12` [Analogue 1, Serotonin], the “Potentiation (fold): degree of colistin potentiation in the presence of sub-MIC of melatonin and its analogues” value (E. coli B2 (mcr-1) [1]) was 8 fold and the FIC index (E. coli B2 (mcr-1) [1]; [11]) was 0.188.
For `N[C@@H](Cc1c[nH]c2ccc(O)cc12)C(=O)O` [Analogue 3, 5-Hydroxy-L-tryptophan], the “Potentiation (fold): degree of colistin potentiation in the presence of sub-MIC of melatonin and its analogues” value (E. coli B2 (mcr-1) [1]) was 2 fold and the FIC index (E. coli B2 (mcr-1) [1]; [11]) was 1.
With `COc1ccc2[nH]cc(CCN)c2c1` [Analogue 6, 5-Methoxytryptamine] the “Potentiation (fold): degree of colistin potentiation in the presence of sub-MIC of melatonin and its analogues” value (E. coli B2 (mcr-1) [1]) was 32 fold and the FIC index (E. coli B2 (mcr-1) [1]; [11]) was 0.156.
In the case of `CO[C@H]1/C=C/O[C@@]2(C)Oc3c(C)c(O)c4c(O)c(c(/C=N/N5CCN(C)CC5)c(O)c4c3C2=O)NC(=O)/C(C)=C\C=C\[C@H](C)[C@H](O)[C@@H](C)[C@@H](O)[C@@H](C)[C@H](OC(C)=O)[C@@H]1C` [Rifampicin], the “MIC of antibiotic in the absence of melatonin” value (E. coli B2 (mcr-1) [1]; 18 h, 37 °C) is reported as 128 µg/mL, the “MIC of antibiotic in the presence of sub-MIC of melatonin” value (E. coli B2 (mcr-1) [1]; [12]) is reported as 128 µg/mL and the FIC index (E. coli B2 (mcr-1) [1]; [13]) is reported as 2.
Work on `NCCc1c[nH]cn1` [Analogue 8, Histamine] yielded an FIC index (E. coli B2 (mcr-1) [1]; [11]) greater than 4.
In the case of `NCCc1c[nH]c2ccccc12` [Analogue 2, Tryptamine], the “Potentiation (fold): degree of colistin potentiation in the presence of sub-MIC of melatonin and its analogues” value (E. coli B2 (mcr-1) [1]) is reported as 32 fold and the FIC index (E. coli B2 (mcr-1) [1]; [11]) is reported as 0.156.
With Colistin the “MIC of antibiotic in the absence of melatonin” value (E. coli B2 (mcr-1) [1]; 18 h, 37 °C) was 8 µg/mL, the “MIC of antibiotic in the presence of sub-MIC of melatonin” value (E. coli B2 (mcr-1) [1]; [12]) was 0.25 µg/mL and the “MIC^a of colistin in the absence of melatonin and its analogues” value (E. coli B2 (mcr-1) [1]; colistin alone, broth micro-dilution in MHB, 18 h, 37 °C) was 8 μg/mL. The “MIC of colistin in the presence of sub-MIC of melatonin” value (E. coli MG1655; E. coli MG1655) was 0.0156 µg/mL, the “MIC of colistin in the absence of melatonin” value (E. coli MG1655; E. coli MG1655, MCR-negative) was 0.0625 µg/mL and the “MIC of colistin in the presence of sub-MIC of melatonin” value (E. coli ATCC 25922; E. coli ATCC 25922) was 0.125 µg/mL. The “MIC of colistin in the absence of melatonin” value (E. coli ATCC 25922; E. coli ATCC 25922, MCR-negative) was 0.5 µg/mL, the “MIC of colistin in the presence of sub-MIC of melatonin” value (E. coli C3; E. coli C3) was 0.0312 µg/mL and the “MIC of colistin in the absence of melatonin” value (E. coli C3; E. coli C3, MCR-negative) was 0.125 µg/mL. The “MIC of colistin in the presence of sub-MIC of melatonin” value (E. coli G6; E. coli G6) was 0.0156 µg/mL, the “MIC of colistin in the absence of melatonin” value (E. coli G6; E. coli G6, MCR-negative) was 0.125 µg/mL and the “MIC of colistin in the presence of sub-MIC of melatonin” value (S. enterica ATCC 13076; S. enterica ATCC 13076) was 0.0156 µg/mL. The “MIC of colistin in the absence of melatonin” value (S. enterica ATCC 13076; S. enterica ATCC 13076, MCR-negative) was 0.125 µg/mL, the “MIC of colistin in the presence of sub-MIC of melatonin” value (E. coli G92 (mcr-1)) was 0.5 µg/mL and the “MIC of colistin in the absence of melatonin” value (E. coli G92 (mcr-1); MCR-positive) was 4 µg/mL. The “MIC of colistin in the presence of sub-MIC of melatonin” value (E. coli CP131 (mcr-3)) was 0.5 µg/mL, the “MIC of colistin in the absence of melatonin” value (E. coli CP131 (mcr-3); MCR-positive) was 4 µg/mL and the “MIC of colistin in the presence of sub-MIC of melatonin” value [2] was 0.5 µg/mL. For the same molecule, the “MIC of colistin in the absence of melatonin” value ([2]; MCR-positive) was 4 µg/mL, the “killing of exponentially growing or stationary E. coli B2 by monotreatment” value (E. coli B2 (mcr-1) [3]) was “neither melatonin nor colistin monotreatment killed” and the “survival of mice after lethal infection” value (E. coli B2 (mcr-1) [4]) was “did not prevent a lethal infection”. The “MIC of colistin in the presence of sub-MIC of melatonin” value (E. coli MG1655 (ΔkatE)) was 7.8 ng/mL.
With `N[C@@H](Cc1c[nH]c2ccccc12)C(=O)O` [Analogue 4, L-tryptophan] the “Potentiation (fold): degree of colistin potentiation in the presence of sub-MIC of melatonin and its analogues” value (E. coli B2 (mcr-1) [1]) was 1 fold and the FIC index (E. coli B2 (mcr-1) [1]; [11]) was 2.
`C[C@@H](O)[C@H]1C(=O)N2C(C(=O)O)=C(S[C@@H]3CN[C@H](C(=O)N(C)C)C3)[C@H](C)[C@H]12` [Meropenem] was tested, and the “MIC of antibiotic in the absence of melatonin” value (E. coli B2 (mcr-1) [1]; 18 h, 37 °C) was 32 µg/mL, the “MIC of antibiotic in the presence of sub-MIC of melatonin” value (E. coli B2 (mcr-1) [1]; [12]) was 32 µg/mL and the FIC index (E. coli B2 (mcr-1) [1]; [13]) was 2.
With `c1ccc2[nH]ccc2c1` [Analogue 7, Indole] the “Potentiation (fold): degree of colistin potentiation in the presence of sub-MIC of melatonin and its analogues” value (E. coli B2 (mcr-1) [1]) was 8 fold.
`C[C@H]1c2cccc(O)c2C(=O)C2=C(O)[C@]3(O)C(=O)C(C(N)=O)=C(O)[C@@H](N(C)C)[C@@H]3[C@@H](O)[C@@H]21` [Doxycycline] was tested, and the “MIC of antibiotic in the absence of melatonin” value (E. coli B2 (mcr-1) [1]; 18 h, 37 °C) was 32 µg/mL, the “MIC of antibiotic in the presence of sub-MIC of melatonin” value (E. coli B2 (mcr-1) [1]; [12]) was 4 µg/mL and the “Potentiation (fold): degree of antibiotics potentiation in the presence of sub-MIC of melatonin” value (E. coli B2 (mcr-1) [1]; [12]) was 8 fold. For the same molecule, the FIC index (E. coli B2 (mcr-1) [1]; [13]) was 0.250.
For `COc1ccc2[nH]cc(CCNC(C)=O)c2c1` [Melatonin, N-acetyl-5-methoxytryptamine], the “killing of exponentially growing or stationary E. coli B2 by monotreatment” value (E. coli B2 (mcr-1) [3]) was “neither melatonin nor colistin monotreatment killed”, the “effect of melatonin on cytotoxicity of colistin” value (CHO cells) was “slightly reduced the cytotoxicity of colistin” and the “effect of melatonin on cytotoxicity of colistin” value (HEK293T cells) was “slightly reduced the cytotoxicity of colistin”. The “survival of mice after lethal infection” value (E. coli B2 (mcr-1) [4]) was “did not prevent a lethal infection”, the “cytoplasmic membrane potential (DiSC3(5))” value (E. coli B2 (mcr-1) [5]) was “caused dissipation of the cytoplasmic membrane potential” and the “total ROS level” value (E. coli B2 [6]) was “had no direct effect on the total ROS level and SOD activity”. For the same molecule, the “production of H2O2” value (E. coli B2 [7]) was “significantly promoted production of H2O2 in a dose-dependent manner”, the mcr-1 expression [8] was “down-regulated in the presence of melatonin” and the intracellular colistin accumulation (E. coli) was “enhanced colistin in cells in a dose-dependent manner”. For the same molecule, the potentiation with colistin (resistant bacteria) was 8 to 32 fold, the “synergistic activity with colistin” value [9] was “synergistic activity was also evidenced” and the SOD activity (E. coli B2 [10]) was “had no direct effect on the total ROS level and SOD activity”.
`CC1(C)S[C@@H]2[C@H](NC(=O)[C@H](N)c3ccccc3)C(=O)N2[C@H]1C(=O)O` [Ampicillin] was tested, and the “MIC of antibiotic in the absence of melatonin” value (E. coli B2 (mcr-1) [1]; 18 h, 37 °C) was 128 µg/mL, the “MIC of antibiotic in the presence of sub-MIC of melatonin” value (E. coli B2 (mcr-1) [1]; [12]) was 128 µg/mL and the FIC index (E. coli B2 (mcr-1) [1]; [13]) was 2.
